Experimental data published in patent US8551721B2, “Bioluminescent detection of cyanohydroxy benzothiazole compounds” (Promega Corporation, priority 2008, dated 2013).

Legend:
Type in all cases: biochemical
UGT 2B7 = target: T1, UGT 2B7 (Homo sapiens, UniProt P16662); test: UGT activity: utilization of substrate by recombinant UGT 2B7 Supersomes; conditions: 2 hour incubation at 37° C., plus vs minus UDPGA, background corrected
T1 construct: purchased BD Gentest; host or cells: insect cells (microsomes)
T1 sequence (P16662 24-529): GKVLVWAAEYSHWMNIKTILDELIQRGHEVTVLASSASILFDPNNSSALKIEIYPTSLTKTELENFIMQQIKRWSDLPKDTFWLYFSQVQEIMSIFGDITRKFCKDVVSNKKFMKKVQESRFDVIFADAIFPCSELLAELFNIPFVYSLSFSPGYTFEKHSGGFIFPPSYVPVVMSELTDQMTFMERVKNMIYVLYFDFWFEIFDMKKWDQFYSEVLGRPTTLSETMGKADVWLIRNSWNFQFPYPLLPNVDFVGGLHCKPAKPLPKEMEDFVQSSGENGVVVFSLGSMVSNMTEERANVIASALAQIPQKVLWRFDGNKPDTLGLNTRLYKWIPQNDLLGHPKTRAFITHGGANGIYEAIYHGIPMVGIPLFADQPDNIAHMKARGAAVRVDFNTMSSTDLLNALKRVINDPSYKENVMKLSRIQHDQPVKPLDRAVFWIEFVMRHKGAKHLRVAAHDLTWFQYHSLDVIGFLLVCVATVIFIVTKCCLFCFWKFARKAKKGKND
Protocol: (§1) The invention includes a method of determining activity of the uridine 5′-diphospho-glucuronosyltransferase (UDP-glucuronosyltransferase, or UGT) family enzymes in vitro. Briefly, UGT enzymes from overexpressed insect microsomes (Supersomes™, BD Gentest™) or animal tissue microsomes (Xenotech, BD Gentest™) were incubated with a cyanobenzothiazole substrate of the invention and the cofactor UDP-glucuronic acid (UDPGA) at 37° C. in buffer at physiological pH containing MgCl2 and alamethicin (typically, 50 mM TES, pH 7.5, 8 mM MgCl2, 4 mM UDPGA (Sigma) and 25 μg/mL alamethicin (Sigma)). Following the UGT enzyme reaction, an equal volume of P450-Glo Luciferin Detection Reagent (Promega) containing 15-30 mM D-cysteine-HCl.H2O (Sigma) was added and the plate was mixed and incubated at room temperature, typically for 20-30 minutes. […]
(§2) During this incubation, the cysteine reacts with the cyanobenzathiozole substrate to yield a D-luciferin derivative. […] Therefore, activity of the UGT enzyme can be measured by analyzing the difference (lower or no output) in relative light units (RLU) of a sample in which glucuronidation occurs compared to a sample that was run under the same conditions with no added UDPGA cofactor. […]
(§3) Reactions were assembled in a white 96-well plate. […] After the incubation was completed, the plate was read on a Veritas™ luminometer (Turner BioSystems, Inc.; Sunnyvale, Calif.). […]

UGT 1A6 = target: T2, UGT 1A6 (Homo sapiens, UniProt P19224); test: UGT activity: utilization of substrate by recombinant UGT 1A6 Supersomes; conditions: 2 hour incubation at 37° C., plus vs minus UDPGA
T2 construct: purchased BD Gentest; host or cells: insect cells (microsomes)
T2 sequence (P19224 27-532): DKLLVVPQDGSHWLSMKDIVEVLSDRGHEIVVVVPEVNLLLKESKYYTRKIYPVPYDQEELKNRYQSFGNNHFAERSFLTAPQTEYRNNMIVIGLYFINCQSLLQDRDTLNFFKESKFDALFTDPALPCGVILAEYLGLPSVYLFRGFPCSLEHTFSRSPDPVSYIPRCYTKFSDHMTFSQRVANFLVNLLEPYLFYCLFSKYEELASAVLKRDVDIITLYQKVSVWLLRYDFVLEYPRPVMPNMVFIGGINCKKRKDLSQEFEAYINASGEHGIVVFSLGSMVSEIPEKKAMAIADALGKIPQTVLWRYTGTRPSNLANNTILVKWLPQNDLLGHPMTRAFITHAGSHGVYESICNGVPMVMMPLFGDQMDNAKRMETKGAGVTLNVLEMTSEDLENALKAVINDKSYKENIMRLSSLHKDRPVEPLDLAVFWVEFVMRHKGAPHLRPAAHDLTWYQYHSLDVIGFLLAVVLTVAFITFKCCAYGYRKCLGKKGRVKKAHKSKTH
Protocol: as §1, §2, §3

UGT 2B17 = target: T3, UGT 2B17 (Homo sapiens, UniProt O75795); test: UGT activity: utilization of substrate by recombinant UGT 2B17 Supersomes; conditions: 2 hour incubation at 37° C., plus vs minus UDPGA
T3 construct: purchased BD Gentest; host or cells: insect cells (microsomes)
T3 sequence (O75795 24-530): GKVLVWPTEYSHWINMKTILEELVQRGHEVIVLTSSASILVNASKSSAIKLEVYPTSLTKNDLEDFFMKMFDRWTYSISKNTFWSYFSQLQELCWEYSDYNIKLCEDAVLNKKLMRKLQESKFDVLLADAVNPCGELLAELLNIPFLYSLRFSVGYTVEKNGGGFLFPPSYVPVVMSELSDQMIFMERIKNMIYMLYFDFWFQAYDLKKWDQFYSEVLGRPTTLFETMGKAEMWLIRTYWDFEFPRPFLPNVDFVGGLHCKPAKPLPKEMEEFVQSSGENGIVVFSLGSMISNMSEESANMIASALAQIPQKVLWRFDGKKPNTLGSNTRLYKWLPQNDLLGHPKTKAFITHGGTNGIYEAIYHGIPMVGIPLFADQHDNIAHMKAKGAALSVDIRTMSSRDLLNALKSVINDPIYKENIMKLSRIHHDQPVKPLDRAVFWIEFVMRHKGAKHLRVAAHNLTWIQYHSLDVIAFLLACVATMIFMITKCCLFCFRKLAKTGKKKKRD
Protocol: as §1, §2, §3

SMILES | % utilization by UGT 2B7 (UGT 2B7) | utilization by UGT 1A6 (in words) (UGT 1A6) | utilization by UGT 2B17 (in words) (UGT 2B17)
Cc1cc(O)cc2sc(C#N)nc12 [compound 3138] | over 50% | detectable levels of utilization above background | detectable levels of utilization above background
Cc1cc(O)cc2sc(C3=NC(C(=O)O)CS3)nc12 (stereo not drawn) [compound 3478] | ≤ 15% | only UGT 1A6 was able to utilize compound 3478 to any appreciable extent | only UGT 1A6 was able to utilize compound 3478 to any appreciable extent
